# Laboratory results reported in US20250017889A1, “INHIBITORS OF P1B-TYPE ATPASES” (THE CURATORS OF THE UNIVERSITY OF MISSOURI, priority 2021, published 2025).
# How the values were obtained:
# [1] = test system: 4T1 cells; experiment: Sensitivity of 4T1 cells to metal ions, crystal violet assay; format: cell-based
# Description: All metals were added as chloride salts except silver, which was added as silver nitrate (AgNO3).
# [2] = test system: 4T1, B16 and LLC cells; experiment: Sensitivity of cells to elevated copper concentrations; format: cell-based; settings: 10 μM, 48 h
# Description: It is well-known that copper export via ATP7A is the major mechanism by which cells are protected against rising copper levels, which is facilitated by Cu-stimulated trafficking of ATP7A from the trans-Golgi to the plasma membrane. Therefore, a predicted consequence of an ATP7A inhibitor would be an increase of the sensitivity of cells to high copper concentrations.
# [3] = test system: ΔcopA/ΔcopB strain of S. aureus; experiment: Growth of copper-sensitive ΔcopA/ΔcopB mutant strain of S. aureus; format: cell-based, Staphylococcus aureus; settings: MKV3 with copper 50 μM
# Description: Methicillin-resistant Staphylococcus aureus (MRSA) is a human pathogen that expresses two Cu-transporting P1B-type ATPases, CopA and CopB, which are known to enhance the virulence of this bacterium. 19A illustrates CopA and CopB copper exporters at the plasma membrane of S. aureus. […] The growth of the ΔcopA/ΔcopB strain was inhibited by approximately 50% when copper alone (50 μM) was added to the culture medium.
# Wild type MRSA expresses two copper-exporting P1B-type ATPases, CopA and CopB that are required for copper tolerance (FIG. 19A). […] The same experiment was performed using MRSA in which both CopA and CopB genes were deleted (ΔcopA/ΔcopB). Consistent with the known role of CopA and CopB in copper tolerance, the growth of the ΔcopA/ΔcopB strain was inhibited by approximately 50% when copper alone (50 μM) was added to the culture medium (FIG. 19C).
# [4] = test system: 4T1 mammary cancer cells; experiment: Orthotopic 4T1 mammary tumor growth and lung metastasis in mice; format: in vivo, BALB/c mice
# [5] = target: T1, ATP7B (Homo sapiens, UniProt P35670); experiment: Microscale thermophoresis (MST) binding to GFP-ATP7B in HEK293 cell lysates; settings: MST analysis; read-out: affinity for ATP7B
# T1 construct: expressed in transfected cells; host or cells: HEK293 (detergent-free lysate)
# T1 sequence (P35670 1-1465): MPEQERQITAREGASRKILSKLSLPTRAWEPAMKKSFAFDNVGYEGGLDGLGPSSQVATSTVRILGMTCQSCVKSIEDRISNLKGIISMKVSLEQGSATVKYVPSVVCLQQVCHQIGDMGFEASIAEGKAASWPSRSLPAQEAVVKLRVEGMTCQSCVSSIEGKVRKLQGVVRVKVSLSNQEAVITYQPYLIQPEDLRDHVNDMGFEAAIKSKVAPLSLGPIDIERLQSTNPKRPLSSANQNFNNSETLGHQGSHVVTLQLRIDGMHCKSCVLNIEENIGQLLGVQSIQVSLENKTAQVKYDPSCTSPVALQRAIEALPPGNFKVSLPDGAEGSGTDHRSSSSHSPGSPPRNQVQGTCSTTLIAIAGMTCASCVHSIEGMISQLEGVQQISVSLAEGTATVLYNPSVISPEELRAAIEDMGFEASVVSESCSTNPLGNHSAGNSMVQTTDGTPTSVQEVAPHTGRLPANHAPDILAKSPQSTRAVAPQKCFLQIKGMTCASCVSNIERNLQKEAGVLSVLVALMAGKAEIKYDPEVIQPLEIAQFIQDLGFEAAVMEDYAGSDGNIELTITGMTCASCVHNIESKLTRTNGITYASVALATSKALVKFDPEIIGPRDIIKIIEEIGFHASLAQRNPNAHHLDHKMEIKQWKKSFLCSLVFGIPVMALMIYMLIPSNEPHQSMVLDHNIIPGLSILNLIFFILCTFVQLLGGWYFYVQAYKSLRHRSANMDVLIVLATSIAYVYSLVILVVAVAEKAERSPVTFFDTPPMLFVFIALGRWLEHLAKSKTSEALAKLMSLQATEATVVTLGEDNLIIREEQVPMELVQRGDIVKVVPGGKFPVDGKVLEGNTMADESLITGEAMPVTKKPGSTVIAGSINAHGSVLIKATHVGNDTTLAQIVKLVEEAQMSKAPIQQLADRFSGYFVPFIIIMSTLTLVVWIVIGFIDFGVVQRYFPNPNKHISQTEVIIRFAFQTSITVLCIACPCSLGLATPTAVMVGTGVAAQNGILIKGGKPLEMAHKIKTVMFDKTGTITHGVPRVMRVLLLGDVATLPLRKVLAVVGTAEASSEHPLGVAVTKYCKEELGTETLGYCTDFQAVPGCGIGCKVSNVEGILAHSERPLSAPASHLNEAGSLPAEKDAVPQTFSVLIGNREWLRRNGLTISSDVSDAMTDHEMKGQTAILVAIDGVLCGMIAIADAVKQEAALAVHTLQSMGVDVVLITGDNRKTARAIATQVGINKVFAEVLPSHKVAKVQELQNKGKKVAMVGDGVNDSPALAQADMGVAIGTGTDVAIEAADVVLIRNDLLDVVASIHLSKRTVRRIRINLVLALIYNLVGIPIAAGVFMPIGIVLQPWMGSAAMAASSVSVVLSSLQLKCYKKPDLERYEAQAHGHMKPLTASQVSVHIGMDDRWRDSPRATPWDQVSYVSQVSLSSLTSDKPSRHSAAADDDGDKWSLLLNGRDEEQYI
# Description: Coordinating residues D935 and E798 are predicted to bind copper during transport.
# [6] = test system: Cu^S cells complemented with ATP7B; experiment: Copper toxicity in Cu^S cells complemented with ATP7B; format: cell-based; settings: 10 μM, 50% cytotoxic copper concentration
# Description: 8A illustrates a copper sensitive fibroblast cell line (Cu^S) generated by deleting genes encoding ATP7A, metallothionein-I (MT-I) and metallothionein-II (MT-II). Cu^S cells cannot be propagated in regular medium (DMEM) unless a copper chelator (BCS) is supplied to the medium.
# Cu^S cell lines were derived that were complemented by either ATP7A, ATP7B or MT-II.
# [7] = test system: ATP7A trafficking in 4T1 breast cancer cells; experiment: Copper-stimulated trafficking of ATP7A by immunofluorescence microscopy; format: cell-based; settings: 10 μM, 4 h, 4T1 cells
# Description: Since the copper-stimulated trafficking of ATP7A is dependent on its transport activity, an inhibitor of ATP7A would be expected to block copper-stimulated trafficking of ATP7A. 4T1 breast cancer cells were pre-grown on glass coverslips for 16 hours in media containing 10 μM of the copper chelator bathocuproine disulfonate to create a baseline of low copper levels. […] After 4 h, the cells were fixed, permeabilized and stained with anti-ATP7A antibodies (green). Nuclei were labeled with DAPI stain. In vehicle treated control cells, the ATP7A protein was strongly detected in the perinuclear region (13A), which is consistent with its known location in the trans-Golgi compartment. As expected, the copper treatment stimulated ATP7A trafficking from the perinuclear region into cytoplasmic vesicles (13B).
# [8] = test system: LOX activity; experiment: LOX activity secreted into conditioned media of cancer cells; format: cell-based; settings: 5 μM, 4 days
# [9] = intravenous 50 mg/kg every Tuesday and Thursday for 3 weeks
# [10] = subcutaneous 50 mg/kg every Monday, Wednesday and Friday for 3 weeks
smiles,measurement,setting,value
N#CC(C(=O)Nc1cccc(C(F)(F)F)c1)C(=S)Nc1ccccc1Cl (stereo not shown) [MKV3],sensitivity to copper and silver,"[1]; 10 μM MKV3, 4T1 cells",conferred sensitivity to as little as 5 μM copper and silver
same,sensitivity to other metals,"[1]; 10 μM MKV3, other metals up to 50 μM",did not affect the sensitivity
same,copper toxicity,[2],strongly augmented copper toxicity
same,copper sensitivity in the ΔcopA/ΔcopB strain,[3],did not increase copper sensitivity
same,metastatic lung burden,[4]; [9],reduced
same,weights of 4T1 primary tumors,[4]; [9],reduced
same,lung metastasis,[4]; [10],significantly reduced
same,primary tumor growth,[4]; [10],significantly reduced
same,Kd,[5],76 nM
same,copper toxicity,[6],enhanced copper toxicity
same,copper-stimulated trafficking of ATP7A,[7],blocked
same,LOX activity in conditioned media,[8]; 4T1 breast cancer cells,reduction in LOX activity
same,LOX activity in conditioned media,[8]; LLC lung cancer cells,reduction in LOX activity
